In brackets after ≈: the same amount, converted by molar mass. Where two headings read alike, the source gives them in different places.
Legend:
[1] = system: methicillin-resistant Staphylococcus aureus; experiment: MIC by broth microdilution, Taiwan clinical isolates (Compound 1′); type: cell-based; conditions: for MIC50 / MIC90: Staphylococcus aureus, MRSA
Procedure: (§1) The Staphylococcus aureus and Streptococcus pneumoniae isolates were obtained by 10 medical centers in all regions of Taiwan. MICs were determined using the broth microdilution method.

[2] = system: methicillin-resistant Streptococcus pneumoniae; experiment: as above; type: cell-based; conditions: for MIC50 / MIC90: Streptococcus pneumoniae
Procedure: as §1

[3] = system: Staphylococcus epidermidis (MSSE, MRSE); experiment: CANWARD 2007 gram-positive cocci, CLSI broth microdilution; type: cell-based; parameters: MIC50 / MIC90: unit not given beside the values
Procedure: (§2) From January-December 2007, 12 hospitals across Canada submitted isolates from patients attending hospital clinics, emergency rooms, medical and surgical wards, and intensive care units. 7881 isolates (CANWARD 2007) were collected including 3473 gram-positive cocci. Susceptibility testing for Compound 1 and Levofloxacin was performed using the Clinical and Laboratory Standards Institute broth microdilution.

[4] = system: S. aureus (MSSA, CA-MRSA, HA-MRSA, VISA, VRSA); experiment: CANWARD 2007 / NARSA gram-positive cocci, CLSI broth microdilution; type: cell-based, Staphylococcus aureus; parameters: MIC50 / MIC90: unit not given here
Procedure: as §2

[5] = system: Methicillin-resistant Staphylococcus aureus (MRSA) isolates; experiment: MIC by broth microdilution (CLSI) against CAN-ICU MRSA isolates; type: cell-based; conditions: Staphylococcus aureus; for MIC50: read-out: MIC50; for MIC90: read-out: MIC90
Excerpt: MRSA isolates (n=193) were obtained as part of the Canadian National Intensive Care Unit (CAN-ICU) Study. 19 medical centers from all regions of Canada with active ICUs participated in the CAN-ICU study included. They were requested to only obtain “clinically significant” specimens from patients with a presumed infectious disease. Surveillance swabs, eye, ear, nose and throat swabs were excluded. Anaerobic organisms and fungal organisms were also excluded.
From September 2005-June 2006 (inclusive), each center collected a maximum of 300 consecutive pathogens isolated from blood, urine, tissue/wound, and respiratory specimens (one pathogen per cultured site per patient) of ICU patients. These isolates were shipped to the reference laboratory (Health Sciences Centre, Winnipeg, Canada) on Amies charcoal swabs, subcultured in appropriate media, and stocked in skim milk at −80° C.
All isolates underwent mecA PCR, as well as molecular characterization (including PVL analysis and fingerprinting), as previously described, to assess whether they were community-associated or healthcare-associated (Christianson et al., J Clin Microbiol. 2007, 45 (6): 1904-11; Mulvey et al., J Clin. Microbiol. 2001, 39(10): 3481-5; Mulvey et al., Emerg Infect Dis. 2005,11(6): 844-50; Oliveira et al., Antimicrob Agents Chemother. 2002, 46(7): 2155-61). The isolates were also subtyped using pulsed-field gel electrophoresis (PFGE) following the Canadian standardized protocol as previously described (Mulvey et al., J Clin Microbiol. 2001, 39(10): 3481-5). Their PFGE fingerprints thus obtained were analyzed with BioNumerics v3.5 (Applied Maths St. Marten-Latem, Belgium) using a position tolerance of 1.0 and an optimization of 1.0. Strain relatedness was determined as previously described (Tenover et al., 1995). The fingerprints of the isolates were compared to the national MRSA fingerprint database and were grouped into one of 10 Canadian epidemic MRSA (CMRSA-1, CMRSA-2, etc) as previously described (Mulvey et al., Emerg Infect Dis. 2005,11(6):844-50).
Compound 1 and other antibiotics were tested for their inhibitory activity against the MRSA isolates using the broth microdilution guidelines as stipulated by the Clinical and Laboratory Standards Institute.

[6] = system: S. pneumoniae; experiment: CANWARD 2007 gram-positive cocci, CLSI broth microdilution; type: cell-based, Streptococcus pneumoniae; parameters: MIC50 / MIC90: unit not given here
Procedure: as §2

[7] = system: E. faecalis; experiment: as above; type: cell-based; parameters: unit not given beside the values; conditions: E. faecalis (81)
Procedure: as §2

[8] = system: H. pylori isolates; experiment: MIC by agar dilution against 200 H. pylori isolates (Taiwan); type: cell-based, Helicobacter pylori
Procedure: MICs were determined using the agar dilution methods recommended by the Clinical and Laboratory Standards Institute (CLSI-M100-S18).

[9] = system: Staphylococcus aureus strains (MRSA, hVISA, VISA, VRSA, quinolone-resistant MRSA); experiment: MIC by agar dilution against Staphylococcal strains (MRSA, hVISA, VISA, VRSA, quinolone-resistant MRSA); type: cell-based; conditions: Staphylococcus aureus
Procedure: Compound 1 was tested for its inhibitory effect against 26 Methicillin-resistant Staphylococcus aureus (MRSA) strains, 2 hetero-Vancomycin intermediate Staphylococcus aureus (hVISA) strains, 24 Vancomycin-intermediate Staphylococcus aureus (VISA) strains, 5 Vancomycin-resistant Staphylococcus aureus (VRSA) strains, and 31 quinolone-resistant Vancomycin-susceptibale MRSA strains with defined mutations in QRDR. These mutations were determined by sequencing analysis of the QRDR (gyrA, gyrB, grlA, and grlB). Efflux testing was performed by the reserpine method (Brenwald, et al., Antimicrob. Agents Chemother. 1998, 42: 2032-2035).

[10] = MRSA-CIP (R): MRSA-ciprofloxacin resistant strain
[11] = MRSA-CIP (S): MRSA-ciprofloxacin sensitive strain
[12] = MRSP-Levo (R): Levofloxacin resistant strain
[13] = MRSP-Levo (S): Levofloxacin sensitive strain
[14] = MRSA / USA100, USA 100/800 (HA-MRSA)
[15] = MRSA / USA200, USA 200 (HA-MRSA)
[16] = MRSA / USA300, USA 300 (CA-MRSA)
[17] = MRSA / USA400, USA 400 (CA-MRSA)
[18] = MRSA / USA600, USA 600 (HA-MRSA)
[19] = Helicobacter pylori, 200 isolates of H. pylori
[20] = hVISA(2) + VISA (24) + VRSA (5)

Molecule `COc1c(N2C[C@H](C)C[C@H](N)C2)ccc2c(=O)c(C(=O)O)cn(C3CC3)c12` [Compound 1′, (3S,5R)-7-[3-amino-5-methyl-piperidinyl]-1-cyclopropyl-1,4-dihydro-8-methoxy-4-oxo-3-quinolinecarboxylic acid] has an MIC50 [1, 10] of 1 µg/mL (≈ 2.69 µM), an MIC90 [1, 10] of 1 µg/mL (≈ 2.69 µM) and an MIC50 [1, 11] of 0.03 µg/mL (≈ 0.0808 µM). The MIC90 [1, 11] was 0.06 µg/mL (≈ 0.162 µM), the “inhibition (in words)” value ([1]; methicillin-resistant Staphylococcus aureus) was “effective” and the MIC50 [2, 12] was 0.25 µg/mL (≈ 0.673 µM). The MIC90 [2, 12] was 1 µg/mL (≈ 2.69 µM), the MIC50 [2, 13] was 0.03 µg/mL (≈ 0.0808 µM) and the MIC90 [2, 13] was 0.06 µg/mL (≈ 0.162 µM). The “inhibition (in words)” value ([2]; methicillin-resistant Streptococcus pneumoniae) was “effective”.

For `C[C@H]1COc2c(N3CCN(C)CC3)c(F)cc3c(=O)c(C(=O)O)cn1c23` [Levofloxacin], the MIC50 ([3]; MRSE (9)) was >32/>32, the MIC90 ([3]; MRSE (9)) was >32/>32 and the MIC50 ([3]; MSSE (32)) was 4. For the same molecule, the MIC90 ([3]; MSSE (32)) was > 32, the MIC50 ([4]; CA-MRSA (23)) was 4 and the MIC90 ([4]; CA-MRSA (23)) was 8. For the same molecule, the MIC50 ([4]; HA-MRSA (91)) was >32/>32, the MIC90 ([4]; HA-MRSA (91)) was >32/>32 and the MIC50 ([4]; MSSA (372)) was 0.25. The MIC90 ([4]; MSSA (372)) was 4, the MIC50 ([4]; VISA (12), NARSA isolates) was 32/>32 and the MIC90 ([4]; VISA (12), NARSA isolates) was 32/>32. For the same molecule, the “median MIC (single value under head MIC50/MIC90)” value ([4]; VRSA (7), NARSA isolates) was 32, the MIC50 [5, 14] was > 32 µg/mL and the MIC90 [5, 14] was > 32 µg/mL. The MIC50 [5, 15] was 32 µg/mL (≈ 88.6 µM), the MIC90 [5, 15] was > 32 µg/mL and the MIC50 [5, 16] was 8 µg/mL (≈ 22.1 µM). For the same molecule, the MIC90 [5, 16] was 8 µg/mL (≈ 22.1 µM), the MIC50 [5, 17] was 0.25 µg/mL (≈ 0.692 µM) and the MIC90 [5, 17] was 0.25 µg/mL (≈ 0.692 µM). For the same molecule, the MIC50 [5, 18] was 32 µg/mL (≈ 88.6 µM), the MIC90 [5, 18] was > 32 µg/mL and the MIC50 ([5]; MRSA (n = 193)) was > 32 µg/mL. The MIC90 ([5]; MRSA (n = 193)) was > 32 µg/mL, the MIC ([5]; MRSA (n = 193), read-out: MIC Range Max) was > 32 µg/mL and the MIC ([5]; MRSA (n = 193), read-out: MIC Range Min) was 0.25 µg/mL (≈ 0.692 µM). For the same molecule, the MIC50 ([6]; SPN CipR (29)) was 2, the MIC90 ([6]; SPN CipR (29)) was 16 and the MIC50 ([6]; SPN PenI (103)) was 0.5. It also gave an MIC90 ([6]; SPN PenI (103)) of 1, an MIC50 ([6]; SPN PenR (34)) of 0.5 and an MIC90 ([6]; SPN PenR (34)) of 2. The MIC50 ([6]; SPN PenS (519)) was 0.5, the MIC90 ([6]; SPN PenS (519)) was 1 and the MIC50 ([6]; SPN-All (656)) was 0.5. For the same molecule, the MIC90 ([6]; SPN-All (656)) was 1, the MIC50 [7] was 2 and the MIC90 [7] was > 32. The “share of isolates resistant” value ([8]; 200 H. pylori isolates, resistance: amoxicillin MICs≧0.5, clarithromycin ≧1, metronidazole ≧8, ciprofloxacin ≧1, levofloxacin ≧1 μg/mL) was 2%, the MIC50 [8, 19] was 250 µg/mL (≈ 692 µM) and the MIC90 [8, 19] was 500 µg/mL (≈ 1380 µM). For the same molecule, the MIC50 ([9]; MRSA (26)) was 0.25 µg/mL (≈ 0.692 µM), the MIC90 ([9]; MRSA (26)) was 0.5 µg/mL (≈ 1.38 µM) and the MIC50 ([9]; Quinolone-resistant MRSA (31)) was 16 µg/mL (≈ 44.3 µM). The MIC90 ([9]; Quinolone-resistant MRSA (31)) was 32 µg/mL (≈ 88.6 µM), the MIC50 [9, 20] was 16 µg/mL and the MIC90 [9, 20] was 32 µg/mL. For the same molecule, the MIC ([9]; read-out: MIC Range, MRSA (26)) was 0.25 to 1 µg/mL (≈ 0.692 to 2.77 µM), the “MIC50/MIC90 (single value printed)” value ([2]; MRSP-Levo (R)) was >128 µg/mL and the “MIC50/MIC90 (single value printed)” value ([2]; MRSP-Levo (S)) was 16 µg/mL (≈ 44.3 µM).
